Where “and” joins values, the source holds several entries; their conditions need not be identical. Equal entries are not always repeated.
Experiments:
[1] = target: T1, hNav1.7 (Homo sapiens, UniProt Q15858); assay: cell-based; assay type: cell-based; conditions: ratio of PX tonic IC50 values; Table 11
[2] = target: T1, hNav1.7; assay: cell-based; conditions: ratio of IonWorks Quattro IC50 values

T1 sequence (Q15858 whole entry): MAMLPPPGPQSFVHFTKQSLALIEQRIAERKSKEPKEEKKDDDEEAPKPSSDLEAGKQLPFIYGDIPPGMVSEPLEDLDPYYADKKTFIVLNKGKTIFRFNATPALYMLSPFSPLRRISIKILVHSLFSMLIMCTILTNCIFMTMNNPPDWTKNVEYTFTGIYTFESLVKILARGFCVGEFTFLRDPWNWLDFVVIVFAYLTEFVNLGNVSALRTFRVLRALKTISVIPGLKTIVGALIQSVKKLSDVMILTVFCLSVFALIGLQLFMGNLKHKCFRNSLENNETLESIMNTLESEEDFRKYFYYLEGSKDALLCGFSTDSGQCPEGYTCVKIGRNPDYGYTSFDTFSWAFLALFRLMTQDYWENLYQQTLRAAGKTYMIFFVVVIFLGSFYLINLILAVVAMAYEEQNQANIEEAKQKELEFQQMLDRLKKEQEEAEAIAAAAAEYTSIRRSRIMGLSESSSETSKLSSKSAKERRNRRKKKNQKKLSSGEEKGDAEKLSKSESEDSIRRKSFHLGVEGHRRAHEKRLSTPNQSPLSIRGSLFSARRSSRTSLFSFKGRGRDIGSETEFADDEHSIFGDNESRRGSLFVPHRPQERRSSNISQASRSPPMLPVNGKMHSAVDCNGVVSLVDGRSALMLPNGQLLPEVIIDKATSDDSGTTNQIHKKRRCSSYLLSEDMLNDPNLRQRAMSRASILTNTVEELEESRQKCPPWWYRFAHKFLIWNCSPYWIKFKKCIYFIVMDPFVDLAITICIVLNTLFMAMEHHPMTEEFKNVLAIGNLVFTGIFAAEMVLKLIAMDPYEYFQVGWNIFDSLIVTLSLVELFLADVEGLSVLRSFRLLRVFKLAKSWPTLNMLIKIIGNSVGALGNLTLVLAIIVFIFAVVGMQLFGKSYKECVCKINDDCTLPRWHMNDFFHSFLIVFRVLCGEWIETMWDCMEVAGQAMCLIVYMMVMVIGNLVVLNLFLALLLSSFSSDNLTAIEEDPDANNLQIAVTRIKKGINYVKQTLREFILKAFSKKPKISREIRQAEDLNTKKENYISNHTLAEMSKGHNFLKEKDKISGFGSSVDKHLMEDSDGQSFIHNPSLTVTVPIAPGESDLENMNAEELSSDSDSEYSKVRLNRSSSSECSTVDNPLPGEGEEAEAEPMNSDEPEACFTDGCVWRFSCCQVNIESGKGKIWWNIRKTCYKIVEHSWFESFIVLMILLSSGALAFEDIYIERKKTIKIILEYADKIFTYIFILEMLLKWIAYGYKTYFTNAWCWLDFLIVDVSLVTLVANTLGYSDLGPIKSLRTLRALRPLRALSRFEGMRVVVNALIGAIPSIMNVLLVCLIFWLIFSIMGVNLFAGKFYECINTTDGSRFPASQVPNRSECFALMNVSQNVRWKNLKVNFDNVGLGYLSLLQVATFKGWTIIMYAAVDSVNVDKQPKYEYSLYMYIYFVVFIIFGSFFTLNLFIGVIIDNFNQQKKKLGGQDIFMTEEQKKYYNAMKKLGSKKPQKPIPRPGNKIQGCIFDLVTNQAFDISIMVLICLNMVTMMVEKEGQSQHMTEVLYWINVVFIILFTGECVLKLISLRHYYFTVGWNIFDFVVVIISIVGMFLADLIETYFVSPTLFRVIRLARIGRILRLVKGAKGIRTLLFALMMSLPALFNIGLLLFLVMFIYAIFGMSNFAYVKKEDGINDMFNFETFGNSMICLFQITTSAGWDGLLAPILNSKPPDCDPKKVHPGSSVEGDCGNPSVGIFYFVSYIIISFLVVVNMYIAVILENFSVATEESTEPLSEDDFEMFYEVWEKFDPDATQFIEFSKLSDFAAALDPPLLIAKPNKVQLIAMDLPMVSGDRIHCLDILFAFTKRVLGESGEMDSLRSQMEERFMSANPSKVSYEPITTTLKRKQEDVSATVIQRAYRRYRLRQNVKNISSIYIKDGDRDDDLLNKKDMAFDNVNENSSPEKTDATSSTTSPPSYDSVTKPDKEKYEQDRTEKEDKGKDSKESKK

Compound	Nav1.4/Nav1.7 [1]	Nav1.5/Nav1.7 [1]	Nav1.4/Nav1.7 ([2]; Table 8)	Nav1.4/Nav1.7 ([2]; Nav1.4 over Nav1.7)
CSCC[C@@H]1NC(=O)[C@H](Cc2c[nH]c3ccccc23)NC(=O)[C@H](CCCCN)NC(=O)[C@H](CCC(N)=O)NC(=O)[C@@H](NC(=O)[C@@H](N)Cc2ccc(O)cc2)CSSC[C@@H]2NC(=O)[C@@H]3CSSC[C@@H](C(=O)N[C@@H](CCCNC(=N)N)C(=O)N[C@@H](CCCCN)C(=O)N[C@@H](Cc4ccc(O)cc4)C(=O)N[C@@H](Cc4cccc5ccccc45)C(N)=O)NC(=O)[C@H](Cc4c[nH]c5ccccc45)NC(=O)[C@H](CC(C)C)NC(=O)[C@H](CCCCN)NC(=O)[C@H](CSSC[C@H](NC(=O)[C@H]([C@@H](C)O)NC(=O)[C@H](Cc4c[nH]c5ccccc45)NC1=O)C(=O)N[C@@H](CC(=O)O)C(=O)N[C@@H](CO)C(=O)N[C@@H](CCCCN)C(=O)N[C@@H](CCCNC(=N)N)C(=O)N[C@@H](C)C(=O)N3)NC(=O)[C@H](CCC(=O)O)NC(=O)[C@H](CC(C)C)NC(=O)CNC(=O)[C@H](CCC(=O)O)NC2=O [compound 232]	372	480	91	
CCC[C@H](NC(=O)[C@H](CCCCN)NC(=O)[C@H](CCCNC(=N)N)NC(=O)[C@@H]1CSSC[C@@H]2NC(=O)[C@H](C)NC(=O)[C@H](CCCNC(=N)N)NC(=O)[C@H](CCCCN)NC(=O)[C@H](CO)NC(=O)[C@H](CC(=O)O)NC(=O)[C@@H]3CSSC[C@H](NC(=O)[C@H](CCC(=O)O)NC(=O)[C@H](CC(C)C)NC(=O)CNC(=O)[C@H](CCC(=O)O)NC(=O)[C@H](CSSC[C@H](NC(=O)[C@@H](N)Cc4ccc(O)cc4)C(=O)N[C@@H](CCC(N)=O)C(=O)N[C@@H](CCCCN)C(=O)N[C@@H](Cc4c[nH]c5ccccc45)C(=O)N[C@@H](CCSC)C(=O)N[C@@H](Cc4c[nH]c5ccccc45)C(=O)N[C@@H]([C@@H](C)O)C(=O)N3)NC2=O)C(=O)N[C@@H](CCCCN)C(=O)N[C@@H](CC(C)C)C(=O)N[C@@H](Cc2c[nH]c3ccccc23)C(=O)N1)C(=O)N[C@H](C(N)=O)[C@@H](C)CC [compound 136]	405	611		66 and 34
CC[C@H](C)[C@H](NC(=O)[C@@H](NC(=O)[C@H](CCCCN)NC(=O)[C@H](CCCNC(=N)N)NC(=O)[C@@H]1CSSC[C@@H]2NC(=O)[C@H](C)NC(=O)[C@H](CCCNC(=N)N)NC(=O)[C@H](CCCCN)NC(=O)[C@H](CO)NC(=O)[C@H](CC(=O)O)NC(=O)[C@@H]3CSSC[C@H](NC(=O)CNC(=O)[C@H](CC(C)C)NC(=O)CNC(=O)[C@H](CCC(=O)O)NC(=O)[C@H](CSSC[C@H](NC(=O)[C@@H](N)Cc4ccc(O)cc4)C(=O)N[C@@H](CCC(N)=O)C(=O)N[C@@H](CCCCN)C(=O)N[C@@H](Cc4c[nH]c5ccccc45)C(=O)N[C@@H](CCSC)C(=O)N[C@@H](Cc4c[nH]c5ccccc45)C(=O)N[C@@H]([C@@H](C)O)C(=O)N3)NC2=O)C(=O)N[C@@H](CCCCN)C(=O)N[C@@H](CC(C)C)C(=O)N[C@@H](Cc2c[nH]c3ccccc23)C(=O)N1)[C@@H](C)CC)C(N)=O [compound 121]	25	1808		29
CC[C@H](C)[C@H](NC(=O)[C@H](CC(=O)O)NC(=O)[C@H](CCCCN)NC(=O)[C@H](CCCNC(=N)N)NC(=O)[C@@H]1CSSC[C@@H]2NC(=O)[C@H](C)NC(=O)[C@H](CCCNC(=N)N)NC(=O)[C@H](CCCCN)NC(=O)[C@H](CO)NC(=O)[C@H](CC(=O)O)NC(=O)[C@@H]3CSSC[C@H](NC(=O)[C@H](CCC(=O)O)NC(=O)[C@H](CC(C)C)NC(=O)CNC(=O)[C@H](CCC(=O)O)NC(=O)[C@H](CSSC[C@H](NC(=O)[C@@H](N)Cc4ccc(O)cc4)C(=O)N[C@@H](CCC(N)=O)C(=O)N[C@@H](CCCCN)C(=O)N[C@@H](Cc4c[nH]c5ccccc45)C(=O)N[C@@H](CCSC)C(=O)N[C@@H](Cc4c[nH]c5ccccc45)C(=O)N[C@@H]([C@@H](C)O)C(=O)N3)NC2=O)C(=O)N[C@@H](CCCCN)C(=O)N[C@@H](CC(C)C)C(=O)N[C@@H](Cc2c[nH]c3ccccc23)C(=O)N1)C(N)=O [compound 128]				4
CC[C@H](C)[C@H](NC(=O)[C@H](CCCCN)NC(=O)[C@H](CCCNC(=N)N)NC(=O)[C@@H]1CSSC[C@@H]2NC(=O)[C@H](C)NC(=O)[C@H](CCCNC(=N)N)NC(=O)[C@H](CCCCN)NC(=O)[C@H](CO)NC(=O)[C@H](CC(=O)O)NC(=O)[C@@H]3CSSC[C@H](NC(=O)[C@H](CCC(=O)O)NC(=O)[C@H](CC(C)C)NC(=O)CNC(=O)[C@H](CCC(=O)O)NC(=O)[C@H](CSSC[C@H](NC(=O)[C@@H](N)Cc4ccc(O)cc4)C(=O)N[C@@H](CCC(N)=O)C(=O)N[C@@H](CCCCN)C(=O)N[C@@H](Cc4c[nH]c5ccccc45)C(=O)N[C@@H](CCSC)C(=O)N[C@@H](Cc4c[nH]c5ccccc45)C(=O)N[C@@H]([C@@H](C)O)C(=O)N3)NC2=O)C(=O)N[C@@H](CCCCN)C(=O)N[C@@H](CC(C)C)C(=O)N[C@@H](Cc2c[nH]c3ccccc23)C(=O)N1)C(=O)N[C@H](C(=O)N[C@@H](Cc1c[nH]c2ccccc12)C(N)=O)[C@@H](C)CC [compound 113]				30
CC[C@H](C)[C@H](NC(=O)[C@H](CC(C)C)NC(=O)[C@H](CCCCN)NC(=O)[C@H](CCCNC(=N)N)NC(=O)[C@@H]1CSSC[C@@H]2NC(=O)[C@H](C)NC(=O)[C@H](CCCNC(=N)N)NC(=O)[C@H](CCCCN)NC(=O)[C@H](CO)NC(=O)[C@H](CC(=O)O)NC(=O)[C@@H]3CSSC[C@H](NC(=O)[C@H](CCC(=O)O)NC(=O)[C@H](CC(C)C)NC(=O)CNC(=O)[C@H](CCC(=O)O)NC(=O)[C@H](CSSC[C@H](NC(=O)[C@@H](N)Cc4ccc(O)cc4)C(=O)N[C@@H](CCC(N)=O)C(=O)N[C@@H](CCCCN)C(=O)N[C@@H](Cc4c[nH]c5ccccc45)C(=O)N[C@@H](CCSC)C(=O)N[C@@H](Cc4c[nH]c5ccccc45)C(=O)N[C@@H]([C@@H](C)O)C(=O)N3)NC2=O)C(=O)N[C@@H](CCCCN)C(=O)N[C@@H](CC(C)C)C(=O)N[C@@H](Cc2c[nH]c3ccccc23)C(=O)N1)C(N)=O [compound 132]				12
CC[C@H](C)[C@H](NC(=O)[C@H](Cc1ccc(O)cc1)NC(=O)[C@H](CCCCN)NC(=O)[C@H](CCCNC(=N)N)NC(=O)[C@@H]1CSSC[C@@H]2NC(=O)[C@H](C)NC(=O)[C@H](CCCNC(=N)N)NC(=O)[C@H](CCCCN)NC(=O)[C@H](CO)NC(=O)[C@H](CC(=O)O)NC(=O)[C@@H]3CSSC[C@H](NC(=O)[C@H](CCC(=O)O)NC(=O)[C@H](CC(C)C)NC(=O)CNC(=O)[C@H](CCC(=O)O)NC(=O)[C@H](CSSC[C@H](NC(=O)[C@@H](N)Cc4ccc(O)cc4)C(=O)N[C@@H](CCC(N)=O)C(=O)N[C@@H](CCCCN)C(=O)N[C@@H](Cc4c[nH]c5ccccc45)C(=O)N[C@@H](CCSC)C(=O)N[C@@H](CC(N)=O)C(=O)N[C@@H]([C@@H](C)O)C(=O)N3)NC2=O)C(=O)N[C@@H](CCCCN)C(=O)N[C@@H](CC(C)C)C(=O)N[C@@H](Cc2c[nH]c3ccccc23)C(=O)N1)C(N)=O [compound 215]			1	

Reference: US10344060B2 (priority 2013, dated 2019)
